Patent US20100216875A1, “METHODS OF TREATING ALZHEIMER'S DISEASE” (priority 2006, published 2010)

Legend:
[1] = tested on: transgenic APPIn mice (London mutant human APP); test: Morris water maze test in transgenic APPIn mice; format: in vivo, mouse; details: icv 0.015 mg/kg/day, 28 days, p<0.005
Protocol: Transgenic mice expressing human APP containing the London mutation (APPIn) mimic AD function and pathology in that they are cognitively deficient, have brain amyloid plaque and elevated Aβ (8). […] CA074Me or E64d were administered by icy infusion in brains (0.015 mg/kg/day) for 28 days (8 animals per treatment group).
Thus, irreversible cathepsin B inhibitors are efficacious in this AD animal model, causing an 80% improvement in cognitive function and a 50% decrease in amyloid plaque load and brain Aβ. Thus, these tests indicate that Cathepsin B inhibitors are effective at reversing the cognitive deficit caused by AD
(§1) The status of memory impairment in the APPIn or APPswe/In mice with and without administration of select compounds was assessed by the Morris water maze test. The water maze test is widely used in mouse AD animal models to evaluate cognitive impairment in such AD models. Water maze tests were conducted as previously described (87-89).
Drug-treated and vehicle-treated mice were tested in the Morris water maze test. Mice were trained in a 1.2 meter open field water maze. The pool was filled to a depth of 30 cm with water and maintained at 25° C. The escape platform (10 cm square) was placed 1 cm below the surface of the water. During the trials, the platform was removed from the pool. […] These trials were not recorded since they were for training purposes only. […]

APPswe/In mice [2] = test: Morris water maze test in APPswe/In mice; format: in vivo, mouse; details: Mean + % SEM; for Latency Period: same treatment as APPIn mice
Protocol: (§2) Cathepsin B inhibitors were also evaluated in another transgenic mouse that expressed human APP containing both the Swedish mutant β-secretase and the London γ-secretase site (APPswe/In).
as §1
Drug-treated and vehicle-treated mice were tested in the Morris water maze test. Mice were trained in a 1.2 meter open field water maze. The pool was filled to a depth of 30 cm with water and maintained at 25° C. The escape platform (10 cm square) was placed 1 cm below the surface of the water. During the trials, the platform was removed from the pool. The cued test was carried out in the pool surrounded with white curtains to hide any extra-maze cues. Aβ animals underwent non-spatial pretraining (NSP) for three consecutive days. These trials were to prepare the animals for the final behavioral test to determine whether there was sufficient retention of memory to find the platform. These trials were not recorded since they were for training purposes only. For the training and learning studies, the curtains were removed to extra maze cues to allow identification of animals with swimming impairments. On day 1, the mice were placed on the hidden platform for 20 seconds (trial 1), for trials 2-3 animals were released in the water at a distance of 10 cm from the cued-platform or hidden platform (trial 4) and allowed to swim to the platform. On the second day of trails, the hidden platform was moved randomly between the center of the pool and the center of each quadrant. The animals were released into the pool, randomly facing the wall and were allowed 60 seconds to reach the platform (3 trials). In the third trial, animals were given three trials, two with a hidden platform and one with a cued platform. Two days following the NSP, the animals were subjected to final behavioral trials (Morris water maze test). For these trials (3 per animal), the platform was placed in the center of one quadrant of the pool and the animals were released facing the wall in a random fashion. Each animal was allowed to find the platform or swim for 60 seconds (latency period, the time it takes to find the platform). Aβ animals were tested within 4-6 hours of dosing and were randomly selected for testing by an operator blinded to the test group.

APPswe/In mice [3] = test: amyloid load, Aβ, CTFβ and sAPPα in APPswe/In mice; format: in vivo, mouse; details: Mean + % SEM
Protocol: as §2
The mouse model of AD expressing human APP containing the Swe mutant β-secretase site and the London mutation (APPswe/In) also overproduce Aβ, and develop neuropathology and behavior that mimic AD. APPswe/In was generated by site-directed mutagenesis at the β-secretase site of the APPIn to convert Lys-Met to the mutant Asn-Leu. Both APPswe/In and APPIn mouse strains were created in a C57BL/6 mouse background using the Thy-1.2 expression cassette driven by the Thy-1 promoter containing an SV40 polyadenylation site. The APPswe/In mice differ from the APPIn in that APPswe/In mice contain the Swedish mutant β-secretase site rather than the wt β-secretase site found in APPIn.
Direct icy infusion into the brain was the first route of administration to be tested to establish the effectiveness of reversible inhibitors in the brain to provide cognitive improvement, and reduction in brain Aβ peptides and amyloid plaques. Icy infusion was performed as described above for the irreversible inhibitors with use of the Alzet minipump. The initial dose utilized was the same dosage used for E64d and CA074Me in the APPIn mice or APPswe/In mice Administration of these compounds began at approximately 1-2 months of age and infusion was conducted for periods of 1, 2, 4, and 8 months (or other time periods). Administration of the select reversible compounds by direct icy infusion into mouse brains was conducted initially at 0.025 μl/hr of 1 mg/ml, other doses may be examined based on results with the first dose. Each time point was conducted with about 8-10 animals and 8-10 normal control animals (age-matched) (or greater number of mice per treatment group, if necessary, for appropriate statistical evaluation). At the end of each of these infusion periods, cognitive testing and assessment of Aβ peptide levels with plaque pathology was evaluated. At each of these time points, mice were tested for cognition, and then sacrificed for evaluation of Aβ and neuropathology in the brain
After behavioral testing was completed, the mice were sacrificed for analyses of Aβ40 and Aβ42 peptide levels, and neuropathology. One half brain (one hemisphere) was utilized to prepare brain extracts for measurement of Aβ40 and Aβ42 levels by ELISA assays, and the other half brain was used for neuropathological evaluation. Procedures for preparation of brain extracts and ELISA assays for Aβ peptides are those used for analyses of guinea pig brains
Aβ-related neuropathology was assessed in cortex and hippocampus of brains. The relative extent of Aβ immunoreactivity in neurons and glial cells was assessed. Immunostaining for Aβ was conducted as described previously (58) Aβ-related neuropathology was assessed in cortex and hippocampus of brains, as well as other regions of the brain as controls. Brain tissue was fixed in 4% paraformaldehyde overnight, and then processed to paraffin. Serial sections were obtained, deparaffinized and washed in TBS buffer. Each section was blocked with appropriate normal serum (mouse or rabbit), and subjected to primary anti-Aβ antibody for detection of amyloid deposits. Sections were then stained with DAB ([…]) with the Vector ABC Elite kit (Vector Laboratories). Amyloid areas were imaged with microscopic computer-assisted analysis system using the NIH Image Analysis Software.

aspartyl protease, BACE1 = aspartyl protease, BACE1 (Homo sapiens, UniProt P56817); test: effect on BACE1; format: biochemical
Sequence of aspartyl protease, BACE1 (P56817 46-501): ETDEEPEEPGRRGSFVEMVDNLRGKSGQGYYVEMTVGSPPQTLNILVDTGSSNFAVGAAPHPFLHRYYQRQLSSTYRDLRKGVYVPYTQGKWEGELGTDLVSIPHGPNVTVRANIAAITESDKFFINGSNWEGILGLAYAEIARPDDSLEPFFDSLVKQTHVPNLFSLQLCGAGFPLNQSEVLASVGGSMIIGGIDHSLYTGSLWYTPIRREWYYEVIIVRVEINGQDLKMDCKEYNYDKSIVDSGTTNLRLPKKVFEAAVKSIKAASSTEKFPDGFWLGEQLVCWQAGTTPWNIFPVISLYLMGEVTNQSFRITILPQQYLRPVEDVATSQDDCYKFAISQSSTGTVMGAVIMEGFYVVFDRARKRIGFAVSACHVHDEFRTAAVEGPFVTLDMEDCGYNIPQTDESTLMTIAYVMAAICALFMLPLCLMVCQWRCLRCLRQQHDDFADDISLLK

muscular dystrophy = details: Phase I through III trials, Japan; cited from earlier work

Row | SMILES | average latency period (Morris water maze) vs control [1] | Distance Traveled (APPswe/In mice [2]) | Latency Period (APPswe/In mice [2]) | Amyloid load (APPswe/In mice [3]) | Aβ40 (APPswe/In mice [3]) | Aβ42 (APPswe/In mice [3]) | CTFβ (APPswe/In mice [3]) | sAPPα (APPswe/In mice [3]) | effect on BACE1 (aspartyl protease, BACE1) | efficacy in muscular dystrophy (muscular dystrophy)
1 | CCCNC(=O)[C@H]1O[C@@H]1C(=O)N[C@H](C(=O)N1CCC[C@H]1C(=O)OC)[C@@H](C)CC [CA074Me] | significantly lower average latency period | 246 + 13% | 37 + 12% | 1.07 + 4% | 91 + 4% | 97 + 3% | 97 + 3% | 101 + 4% | do not affect | –
2 | CCOC(=O)[C@H]1O[C@@H]1C(=O)N[C@@H](CC(C)C)C(=O)NCCC(C)C [E64d] | significantly lower average latency period | 270 + 12% | 40 + 10% | 1.06 + 4% | 92 + 7% | 101 + 3% | 100 + 3% | 98 + 3% | do not affect | lack of efficacy
